Data from US20250144107A1, “USE OF A PIKFYVE INHIBITOR IN COMBINATION WITH IMMUNOTHERAPY” (The Regents of the University of Michigan, priority 2023, published 2025).

Experiments:
[1] = reported, Ikonomov et al. 2019; cited from earlier work
[2] = tested on: immune cells enriched from spleens; assay: Immune cells from spleens of non-tumor-bearing mice; assay type: in vivo
Experimental: FIG. 13A is a box and whisker plot of relative median fluorescent intensity of surface XCR1 in CD45^+ cells of splenic DCs in PIKfyve inhibitor-treated non-tumor-bearing mice.
FIG. 13B is a box and whisker plot of cDC1 cells from spleens of mice treated with vehicle or apilimod, 30 mg/kg daily, after 5 days of treatment.
FIG. 18A is a series of nine scatter plots of the gating strategy for CD69^+ effector, naïve, terminally differentiated, resident memory, central memory, and exhausted CD8^+ T cells from spleens of non-tumor-bearing mice treated with vehicle or apilimod, 30 mg/kg daily, after 5 days of treatment.
FIG. 18H is a series of nine scatter plots of the gating strategy for FIG. 13A-B and FIG. 18I for myeloid cells and cDCs.

IL-12 in cDCs = assay: Il12b RT-qPCR and IL-12 ELISA in cDCs; assay type: cell-based, mice
Experimental: FIG. 21E is a bar graph comparison of Il12b expression fold change by RT-qPCR in apilimod vs. DMSO-treated, 3 or 12 hours, cDCs after 6 days of culture.
FIG. 21F is a bar graph comparison of IL-12p40 protein levels by ELISA in media from apilimod vs. DMSO-treated, 12 hours, cDCs after 6 days of culture.
FIG. 21G is a bar graph Supp. 5 g Comparison of IL-12p70 protein levels by ELISA in media from apilimod vs. DMSO-treated, 24 hours, cDCs after 6 days of culture.

[3] = tested on: NF-κB gene targets in cDCs; assay: RNA-seq and gene set enrichment in cDCs; assay type: cell-based, mice
Experimental: FIG. 14B is a line graph of the enrichment of NF-κB target genes in DMSO or apilimod-treated, 3 hours, cDCs after 6 days of culture.
FIG. 14C is a line graph of the enrichment of NF-κB target genes in DMSO or apilimod-treated, 8 hours, cDCs after 6 days of culture.
FIG. 14H is a scatter plot of differentially expressed genes in apilimod versus DMSO-treated, 8 hours, cDCs after 6 days of culture.
FIG. 21C is a line graph of MSigDB Hallmark “TNF_SIGNALING_VIA_NFκB” in apilimod vs. DMSO-treated, 3 hours, cDCs after 6 days of culture.
FIG. 21D is a line graph of MSigDB Hallmark “TNF_SIGNALING_VIA_NFκB” in apilimod vs. DMSO-treated, 8 hours, cDCs after 6 days of culture.
The Eukaryote Total RNA Nano kit (Agilent Technologies; catalog #: 5067-1511) was used to check the quality of RNAs on an Agilent bioanalyzer. A total of 800 ng RNA was then used for library preparation with the KAPA RNA Hyper+RiboErase HMR kit (Roche Diagnostics; Catalog #: 08098140702), following the instructions from the user manual. Briefly, the ribosomal RNA was removed by enzymatic digestion, and then the RNA was fragmented to around 200-300 bp with heat in fragmentation buffer. Synthesis of cDNA was conducted with reverse transcriptase and random primer, and then the second strand was synthesized to generate double-stranded cDNA. Following the repair of the DNA ends, NEB adapter was ligated, and the DNA are amplified with the KAPA HiFi HotStart mix and NEB dual barcode. Quality of the library was checked using the bioanalyzer with the Agilent DNA 1000 Kit (Agilent Technologies; catalog #: 5067-1504), and the sequencing was performed using NovaSeq 6000. The RNA-sequencing data was analyzed with packages limma and edgeR See, e.g., Ritchie, M. E. et al., Nucleic Acids Res. 2015; 43(7):47; Phipson, B. et al., Ann. Appl. Stat. 2016; 10(2):946-963; Robinson, M. D. et al., Bioinformatics 2010; 26(1):139-40. […] The analyzed hallmark pathways were collected from the Molecular Signatures Database See, e.g., Subramanian, A. et al., Proc. Natl. Acad. Sci. USA 2005; 102(43):15545-15550; Liberzon, A. et al., Cell Syst. […]

[4] = 30 mg/kg daily, 5 days, vs vehicle

For `Cc1cccc(/C=N/Nc2cc(N3CCOCC3)nc(OCCc3ccccn3)n2)c1` [apilimod, N-[(E)-(3-methylphenyl)methylideneamino]-6-morpholin-4-yl-2-(2-pyridin-2-ylethoxy)pyrimidin-4-amine], the stability [1] is listed as “instability”, the “percentage of terminally differentiated, memory or exhausted CD8+ T cells” value [2, 4] is listed as “no changes” and the “proportions of CD69+CD8+ T cells” value [2, 4] is listed as “increased”. The “total surface expression of CD11c, F4/80, or CD11b” value [2, 4] was “no change”, the “total surface expression of XCR1” value [2, 4] was “increase” and the “relative percentage of cDC1s versus cDC2 cells” value ([2]; within the cDC subset) was “increase”. For the same compound, the “secretion of IL-12p40” value (IL-12 in cDCs; ELISA) was “increased”, the “secretion of IL-12p70” value (IL-12 in cDCs; ELISA) was “increased” and the Il12b transcripts (IL-12 in cDCs; RT-qPCR) was “increased”. For the same compound, the “enrichment of TNF_SIGNALING_VIA_NFκB gene set” value ([3]; 3 and 8 hours, vs DMSO) was “positive enrichment”, the Sqstm1 expression ([3]; 8 hours, vs DMSO) was “most significantly upregulated gene” and the “enrichment of direct NF-κB gene targets” value ([3]; early time points) was “positively enriched”.
